What was measured:
[1] = system: S. aureus DSM 20231; experiment: Bliss interaction score (quartile over a dose matrix) (fitness difference); higher = more antagonism (negative = synergy)
In short: (§1)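 The Bliss score subtracts expected fitness, the product of the single-drug fitness values, from observed fitness. Fitness is plate-normalised OD595 at entry into stationary phase, relative to the robust no-drug mean and capped at 1, with single-drug fitness inferred from combinations. Summaries are quartiles over technical, biological and donor/recipient replicates.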

[2] = system: S. pneumoniae D39V; experiment: as above
In short: as §1

[3] = system: B. subtilis 168; experiment: as above
In short: as §1

[4] = system: S. aureus Newman; experiment: as above
In short: as §1

[5] = system: S. pneumoniae D39V; experiment: fitness (endpoint OD595 vs no drug) (fraction); higher = more growth
In short: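 Bacterial growth was followed in 384-well plates seeded at OD595 0.01, with 30 µl per well, or 55 µl for S. pneumoniae, in TSB, LB Lennox or CY at 37 °C. OD595 was read every 30 min for 14 h, and each reading had the first reading subtracted as background. Fitness is the background-corrected optical density at entry into stationary phase divided by the robust mean of the no-drug control wells. This ratio is capped at 1.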
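Wherever Bliss interaction score (quartile over a dose matrix) is given: first quartile when negative (synergy) and third quartile when positive (antagonism).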

CC1(C)S[C@@H]2[C@H](NC(=O)[C@H](N)c3ccc(O)cc3)C(=O)N2[C@H]1C(=O)O [Amoxicillin] + Clc1ccc(COC(Cn2ccnc2)c2ccc(Cl)cc2Cl)c(Cl)c1 [Miconazole]
Settings | Bliss interaction score
[1] | 0.0878
[2] | -0.0912
[3] | 0.0957
[4] | 0.0536

fitness, [5]
Settings | partner 1.073 µg/mL | partner 1.25 µg/mL | partner 2.145 µg/mL | partner 2.5 µg/mL | partner 4.29 µg/mL | partner 5 µg/mL
first compound 0.0008 µg/mL | ≥ 1 | – | 0.881 | – | 0.882 | –
first compound 0.0015 µg/mL | ≥ 1 | 0.781 | 0.948 | 0.831 | 0.848 | 0.906
first compound 0.003 µg/mL | 0.994 | 0.736 | 0.778 | 0.814 | 0.739 | 0.849

fitness, [5], one replicate
Settings | partner 1.25 µg/mL | partner 2.5 µg/mL | partner 5 µg/mL
first compound 0.0008 µg/mL | 0.89 | 0.799 | 0.987
first compound 0.006 µg/mL | 0.355 | 0.264 | 0.395

CC1(C)S[C@@H]2[C@H](NC(=O)[C@H](N)c3ccc(O)cc3)C(=O)N2[C@H]1C(=O)O [Amoxicillin] + O=C1CN(/N=C/c2ccc([N+](=O)[O-])o2)C(=O)N1 [Nitrofurantoin]
Settings | Bliss interaction score
[1] | -0.0521
[2] | 0.11
[3] | -0.206
[4] | 0.0375

fitness, [5]
Settings | partner 1.285 µg/mL | partner 2 µg/mL | partner 2.57 µg/mL | partner 4 µg/mL | partner 8 µg/mL
first compound 0.0008 µg/mL | ≥ 1 | – | 0.957 | – | –
first compound 0.0015 µg/mL | 0.92 | 0.906 | 0.962 | 0.897 | 0.903
first compound 0.003 µg/mL | 0.909 | 0.859 | 0.922 | 0.868 | 0.875

fitness, [5], one replicate
Settings | first compound 0.0008 µg/mL | first compound 0.0015 µg/mL | first compound 0.003 µg/mL | first compound 0.006 µg/mL
partner 2 µg/mL | 0.93 | – | – | 0.43
partner 4 µg/mL | 0.979 | – | – | 0.433
partner 5.14 µg/mL | 0.928 | 0.921 | 0.857 | –
partner 8 µg/mL | 0.944 | – | – | 0.514

CO/N=C(\C(=O)N[C@@H]1C(=O)N2C(C(=O)[O-])=C(C[N+]3(C)CCCC3)CS[C@H]12)c1csc(N)n1 [Cefepime] + CCC(C)C1C(=O)NC(=C)C(=O)NC(C(=O)NC(CSCC(C(=O)N1)NC(=O)/C(=C/C)/NC(=O)C(C(C)CC)N)C(=O)NC2C(SCC(NC(=O)CNC(=O)C3CCCN3C2=O)C(=O)NC(CCCCN)C(=O)NC4C(SCC(NC(=O)CNC(=O)C(NC(=O)C(NC(=O)C(NC(=O)CNC4=O)C)CC(C)C)CCSC)C(=O)NC(CC(=O)N)C(=O)NC(CCSC)C(=O)NC(CCCCN)C(=O)NC5C(SCC6C(=O)NC(C(=O)NC(CSC(C(C(=O)N6)NC(=O)C(NC5=O)C)C)C(=O)NC(CO)C(=O)NC(C(C)CC)C(=O)NC(CC7=CN=CN7)C(=O)NC(C(C)C)C(=O)NC(=C)C(=O)NC(CCCCN)C(=O)O)CC8=CN=CN8)C)C)C)CC(C)C [Nisin]
main component drawn
Settings | Bliss interaction score
[1] | -0.0745
[2] | -0.0526
[3] | -0.0465
[4] | -0.0777

[5], main component drawn
Settings | fitness
first compound 0.007 µg/mL, partner 1.6 µg/mL | 0.0039
first compound 0.007 µg/mL, partner 3.2 µg/mL | 0.0024
first compound 0.007 µg/mL, partner 6.4 µg/mL | 0.0023
first compound 0.0078 µg/mL, partner 0.4275 µg/mL | 0.996
first compound 0.0078 µg/mL, partner 0.855 µg/mL | ≥ 1
first compound 0.0078 µg/mL, partner 1.71 µg/mL | 0.189
first compound 0.014 µg/mL, partner 1.6 µg/mL | 0.0058
first compound 0.014 µg/mL, partner 3.2 µg/mL | 0.0156
first compound 0.014 µg/mL, partner 6.4 µg/mL | 0.0123
first compound 0.0155 µg/mL, partner 0.4275 µg/mL | 0.996
first compound 0.0155 µg/mL, partner 0.855 µg/mL | 0.974
first compound 0.0155 µg/mL, partner 1.71 µg/mL | 0.126
first compound 0.028 µg/mL, partner 1.6 µg/mL | 0.0484
first compound 0.028 µg/mL, partner 3.2 µg/mL | 0.0251
first compound 0.028 µg/mL, partner 6.4 µg/mL | 0.0152
first compound 0.031 µg/mL, partner 1.71 µg/mL | 0.103

CO/N=C(\C(=O)N[C@@H]1C(=O)N2C(C(=O)[O-])=C(C[N+]3(C)CCCC3)CS[C@H]12)c1csc(N)n1 [Cefepime] + CN(C)C(=O)C(CCN1CCC(O)(c2ccc(Cl)cc2)CC1)(c1ccccc1)c1ccccc1 [Loperamide]
Settings | Bliss interaction score
[1] | 0.156
[2] | -0.0863
[3] | -0.171
[4] | 0.0533

[5]
Settings | fitness
first compound 0.007 µg/mL, partner 20 µg/mL | ≥ 1
first compound 0.007 µg/mL, partner 40 µg/mL | ≥ 1
first compound 0.007 µg/mL, partner 80 µg/mL | 0.913
first compound 0.0078 µg/mL, partner 17.14 µg/mL | ≥ 1
first compound 0.0078 µg/mL, partner 34.28 µg/mL | 0.969
first compound 0.014 µg/mL, partner 20 µg/mL | ≥ 1
first compound 0.014 µg/mL, partner 40 µg/mL | ≥ 1
first compound 0.0155 µg/mL, partner 17.14 µg/mL | 0.952
first compound 0.0155 µg/mL, partner 34.28 µg/mL | 0.854
first compound 0.028 µg/mL, partner 20 µg/mL | 0.911
first compound 0.028 µg/mL, partner 40 µg/mL | 0.841

[5], partner 68.57 µg/mL, one replicate
Settings | fitness
first compound 0.0078 µg/mL | ≥ 1
first compound 0.0155 µg/mL | ≥ 1
first compound 0.031 µg/mL | 0.48

CO/N=C(\C(=O)N[C@@H]1C(=O)N2C(C(=O)[O-])=C(C[N+]3(C)CCCC3)CS[C@H]12)c1csc(N)n1 [Cefepime] + CO[C@H]1/C=C/O[C@@]2(C)Oc3c(C)c(O)c4c(O)c(c(/C=N/N5CCN(C)CC5)c(O)c4c3C2=O)NC(=O)/C(C)=C\C=C\[C@H](C)[C@H](O)[C@@H](C)[C@@H](O)[C@@H](C)[C@H](OC(C)=O)[C@@H]1C [Rifampicin]
Settings | Bliss interaction score
[1] | 0.136
[2] | 0.0513
[3] | 0.118
[4] | 0.035

fitness, [5]
Settings | first compound 0.007 µg/mL | first compound 0.014 µg/mL | first compound 0.0155 µg/mL | first compound 0.028 µg/mL | first compound 0.031 µg/mL
partner 0.025 µg/mL | ≥ 1 | 0.992 | – | 0.93 | –
partner 0.05 µg/mL | ≥ 1 | 0.995 | – | 0.936 | –
partner 0.1 µg/mL | 0.477 | 0.47 | 0.325 | 0.222 | 0.208

fitness, [5], one replicate
Settings | first compound 0.0078 µg/mL | first compound 0.0155 µg/mL | first compound 0.031 µg/mL
partner 0.025 µg/mL | 0.884 | 0.779 | 0.31
partner 0.2 µg/mL | 0 | 0 | 0

CO/N=C(\C(=O)N[C@@H]1C(=O)N2C(C(=O)[O-])=C(C[N+]3(C)CCCC3)CS[C@H]12)c1csc(N)n1 [Cefepime] + C[C@@H](O)[C@H]1C(=O)N2C(C(=O)O)=C(SCCNC=N)C[C@H]12 [Imipenem]
Settings | Bliss interaction score
[1] | -0.0424
[2] | 0.068
[3] | -0.106
[4] | 0.155

fitness, [5]
Settings | first compound 0.007 µg/mL | first compound 0.0078 µg/mL | first compound 0.014 µg/mL | first compound 0.0155 µg/mL | first compound 0.028 µg/mL | first compound 0.031 µg/mL
partner 0.005 µg/mL | 0.987 | – | 0.979 | – | 0.92 | –
partner 0.0065 µg/mL | – | 1 | – | 0.971 | – | 0.39
partner 0.01 µg/mL | 0.984 | – | ≥ 1 | – | 0.902 | –
partner 0.013 µg/mL | – | ≥ 1 | – | 0.98 | – | 0.495
partner 0.02 µg/mL | 0.986 | – | 0.991 | – | 0.881 | –
partner 0.026 µg/mL | – | 0.995 | – | 0.915 | – | 0.325

CN(C)C(=O)C(CCN1CCC(O)(c2ccc(Cl)cc2)CC1)(c1ccccc1)c1ccccc1 [Loperamide] + Oc1cc(Cl)ccc1Oc1ccc(Cl)cc1Cl [Triclosan]
Settings | Bliss interaction score
[1] | -0.0746
[2] | -0.179
[3] | 0.0255
[4] | 0.0213

CCN(CC)CCOC(=O)c1ccc(N)cc1 [Procaine] + C/C(=C\C(=O)OCCCCCCCCC(=O)O)C[C@@H]1OC[C@H](C[C@@H]2O[C@H]2[C@@H](C)[C@H](C)O)[C@@H](O)[C@H]1O [Pseudomonic acid]
Settings | Bliss interaction score
[1] | 0.0122
[2] | -0.0844
[3] | 0.0611
[4] | 0.0207

CCN(CC)CCOC(=O)c1ccc(N)cc1 [Procaine] + CC[C@H]1OC(=O)[C@H](C)C(=O)[C@H](C)[C@@H](O[C@@H]2O[C@H](C)C[C@H](N(C)C)[C@H]2O)[C@](C)(OC)C[C@@H](C)C(=O)[C@H](C)[C@H]2N(CCCCn3cnc(-c4cccnc4)c3)C(=O)O[C@]12C [Telithromycin]
Settings | Bliss interaction score
[1] | -0.0287
[2] | 0.0708
[3] | -0.0224
[4] | 0.0289

CCN(CC)CCOC(=O)c1ccc(N)cc1 [Procaine] + Oc1cc(Cl)ccc1Oc1ccc(Cl)cc1Cl [Triclosan]
Settings | Bliss interaction score
[1] | 0.0864
[2] | -0.0644
[3] | 0.0507
[4] | -0.0125

Cn1nnc(-c2ccc(-c3ccc(N4C[C@H](CO)OC4=O)cc3F)cn2)n1 [Tedizolid] + CCCCCCCCCC(=O)N[C@@H]1[C@H]([C@@H]([C@H](O[C@H]1OC2=C3C=C4C=C2OC5=C(C=C(C=C5)[C@H]([C@H]6C(=O)N[C@@H](C7=C(C(=CC(=C7)O)OC8[C@H]([C@H]([C@@H]([C@H](O8)CO)O)O)O)C9=C(C=CC(=C9)[C@H](C(=O)N6)NC(=O)[C@@H]4NC(=O)[C@@H]1C2=CC(=CC(=C2)OC2=C(C=CC(=C2)[C@H](C(=O)N[C@H](CC2=CC(=C(O3)C=C2)Cl)C(=O)N1)N)O)O)O)C(=O)O)O[C@H]1[C@@H]([C@H]([C@@H]([C@H](O1)CO)O)O)NC(=O)C)Cl)CO)O)O [Teicoplanin]
main component drawn
Settings | Bliss interaction score
[1] | -0.083
[2] | 0.295
[3] | 0.065
[4] | 0.0811

Cn1nnc(-c2ccc(-c3ccc(N4C[C@H](CO)OC4=O)cc3F)cn2)n1 [Tedizolid] + CC[C@H]1OC(=O)[C@H](C)C(=O)[C@H](C)[C@@H](O[C@@H]2O[C@H](C)C[C@H](N(C)C)[C@H]2O)[C@](C)(OC)C[C@@H](C)C(=O)[C@H](C)[C@H]2N(CCCCn3cnc(-c4cccnc4)c3)C(=O)O[C@]12C [Telithromycin]
Settings | Bliss interaction score
[1] | -0.0684
[2] | -0.0527
[3] | -0.0463
[4] | -0.0897

Cn1nnc(-c2ccc(-c3ccc(N4C[C@H](CO)OC4=O)cc3F)cn2)n1 [Tedizolid] + CN(C)c1cc(NC(=O)CNC(C)(C)C)c(O)c2c1C[C@H]1C[C@H]3[C@H](N(C)C)C(O)=C(C(N)=O)C(=O)[C@@]3(O)C(O)=C1C2=O [Tigecycline]
Settings | Bliss interaction score
[1] | -0.107
[2] | -0.0764
[3] | -0.0434
[4] | 0.0453

Cn1nnc(-c2ccc(-c3ccc(N4C[C@H](CO)OC4=O)cc3F)cn2)n1 [Tedizolid] + COc1cc(Cc2cnc(N)nc2N)cc(OC)c1OC [Trimethoprim]
Settings | Bliss interaction score
[1] | 0.215
[2] | -0.0785
[3] | 0.0776
[4] | 0.136

Cn1nnc(-c2ccc(-c3ccc(N4C[C@H](CO)OC4=O)cc3F)cn2)n1 [Tedizolid] + Oc1cc(Cl)ccc1Oc1ccc(Cl)cc1Cl [Triclosan]
Settings | Bliss interaction score
[1] | -0.153
[2] | -0.075
[3] | 0.0378
[4] | 0.037
